Data as given in publication PMC3177945 (Bioorganic & medicinal chemistry letters, 2010).

Target: AmpC β-lactamase (Escherichia coli, UniProt P00811)
Assay: biochemical
Type: biochemical

Sequence of AmpC β-lactamase (P00811 20-377): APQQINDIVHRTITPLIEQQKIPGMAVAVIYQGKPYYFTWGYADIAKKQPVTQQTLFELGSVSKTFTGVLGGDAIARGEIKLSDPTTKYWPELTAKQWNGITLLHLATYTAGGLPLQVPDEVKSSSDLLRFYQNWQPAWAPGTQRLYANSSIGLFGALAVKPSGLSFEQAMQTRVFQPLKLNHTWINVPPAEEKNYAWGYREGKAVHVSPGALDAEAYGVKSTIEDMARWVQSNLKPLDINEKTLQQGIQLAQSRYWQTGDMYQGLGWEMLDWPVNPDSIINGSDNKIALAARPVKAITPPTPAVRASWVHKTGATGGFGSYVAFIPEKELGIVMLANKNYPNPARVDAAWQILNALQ

| Compound | increase of affinity for AmpC compared to non-carboxylate analog (4-carboxy derivative vs non-carboxylate analog (6–9, 1)) | Ki [µM] |
| --- | --- | --- |
| Cc1noc(C)c1S(=O)(=O)Nc1cc(B(O)O)ccc1C(=O)O [compound 12] | performed worse with respect to its analog | – |
| O=C(O)c1ccc(C(=O)Nc2cccc(S(=O)(=O)Nc3cc(B(O)O)ccc3C(=O)O)c2)cc1 [compound 13] | – | 0.1 |
